In patent publication US11369665B2, “Anti-inflammatory peptides and composition comprising the same” (GemVax & KAEL Co., Ltd., priority 2012, dated 2022):

Legend:
TNF-α = assay: Western blot of expression level, LPS-stimulated cells; type: cell-based; details: LPS 1 μg/ml, PEP 1 5 μg/ml
Method: (§1) Raw 264.7 macrophage cell (KCBL, 40071) from Korea Cell Bank was maintained in Dulbecco's modified Eagle's medium (DMEM; PAA, Austria) containing 10% fetal bovine serum (FBS; GIBCO®), 100 unit/mL of streptomycin, and penicillin (Gibco Laboratories) at 37° C. with 5% CO2. Raw 264.7 cells were seeded into a 96-well plate at a density of 1×10^6 cells/mL and incubated overnight.
(§2) On the following day, the medium was replaced with fresh medium and 5 μg/mL of peptide (obtained as described in Experiment example 1) was added to the cells. After 30 min incubation of cells with the peptide 50 μL of LPS (to a final concentration of 1 μg/mL) was added, and cells were incubated for additional 24 hr. The experimental sample with the induction of inflammatory response was treated with 1 μg/mL mL lipopolysaccharide (LPS; SIGMA-ALDRICH®, USA) and control sample was treated with phosphate buffered saline (PBS; pH 7.2). The supernatant samples from each condition was collected in eppendorf tubes and subjected to further analysis.
(§3) Protein expression level was determined by Western blot analysis. Cells grown in PEP-1 containing medium were washed with PBS, treated with 0.05% trypsin-EDTA, and collected by centrifugation. The collected cells were dissolved in an appropriate volume of lysis buffer. Intracellular debris was pelleted by centrifugation, and equal amount of protein from each sample was separated by SDS-polyacrylamide gel electrophoresis. The separated protein was transferred to nitrocellulose membrane (Schleicherand Schuell, Keene, N.H., USA), then was tested for the antibody specific for each protein. The membrane was incubated with ECL (enhanced chemiluminoesence) solution ([…]®), exposed to X-ray, and the level of protein expression was analyzed according to the exposure level shown on the X-ray film.

COX-2 = assay: as above; type: cell-based; details: LPS 1 μg/ml, PEP 1 5 μg/ml
Method: as §1, §2, §3

HMGB1 [1] = assay: as above; type: cell-based; details: LPS 1 μg/ml, PEP 1 5 μg/ml
Method: as §1, §2, §3

HMGB1, TNF-α and COX = assay: Western blot of pro-inflammatory cytokine expression; type: cell-based; details: cells treated with both LPS and PEP-1
Method: as §1, §2
Protein expression level was determined by Western blot analysis. […] The membrane was incubated with ECL (enhanced chemiluminoesence) solution ([…]®), exposed to X-ray, and the level of protein expression was analyzed according to the exposure level shown on the X-ray film. […]

neural stem cells = assay: Co-treatment amyloid-β and PEP-1: apoptosis (TUNEL assay); type: cell-based, rat; details: 20 μM amyloid-β protein, 1 to 100 μM of PEP 1
Method: To determine whether PEP 1 has the effect of suppressing the neurotoxicity caused by amyloid-β protein, 20 μM amyloid-β protein and various concentrations of PEP-1 were co-treated for 48 hours. The cell viability and apoptosis were measured using MMT assay, CCK-8 assay, LDH assay and TUNEL assay, and neural stem cell proliferation by BrdU assay.
To confirm the degree of neuronal stem cells damage, TUNEL assay was performed. […] (Refer to FIG. 12)

HMGB1 [2] = assay: Western blot of HMGB1 in amyloid-β damaged neural stem cells; type: cell-based, rat; details: after the decrease by amyloid-β treatment, FIG. 15J
Text: HMGB1, a non-histone structure protein that binds to DNA, serves diverse roles within a cell; such as stabilizing nucleosome structure and regulating gene expression.

HSP 70 = assay: 2D-electrophoresis protein expression in neural stem cells; type: cell-based, rat; details: 20 ug β-amyloid + PEP 1 treated group, versus negative control 1.0
Method: (§4) Protein expression level of PEP-1 treated group and untreated group was analyzed by 2D-electrophoresis technique and antibody microarray technique. Prepared 200 μg by extracting proteome from the neural stem cells cultured in Experiment 3-1 of Example 3. In addition, the group in which PEP-1 was not treated was used as the comparison group in the same condition.
(§5) 2D-electrophoresis was performed using 12% acrylamide gels. First gel electrophoresis was performed at PI 4˜10 N, using a gel size of 8.5×7 cm. After electrophoresis, it was dyed with Colloidal Coomassie Blue, and then compared expression by using PDQuest software to analyze each spot.
(§6) Difference in the expression levels of more than 1.5 times was identified using MALDI-TOF MS (Matrix Desorption/Ionization Time of Flight Mass Spectromestry). Among these, proteins correlated with inflammation-related signaling, such as i-NOS and HMGB-1 were identified (Refer to Table 6). The changes in protein expression levels either increased or decreased by 1.5 times by amyloid-β protein, but it was confirmed that expression level was regulated close to that of negative control when PEP-1 was added (Refer to FIGS. 14A-14B).
(§7) The Table 6 below is an analysis of expression levels of proteins associated with inflammation by 2D electrophoresis technique. The control group represents protein expression level of cells that were not treated with neither amyloid-β protein nor PEP-1.

MAP Kinase = assay: as above; type: cell-based, rat; details: 20 ug β-amyloid + PEP 1 treated group, versus negative control 1.0
Method: as §4, §5, §6, §7

e-NOS = assay: as above; type: cell-based, rat; details: 20 ug β-amyloid + PEP 1 treated group, versus negative control 1.0
Method: as §4, §5, §6, §7

HSP 90 = assay: as above; type: cell-based, rat; details: 20 ug β-amyloid + PEP 1 treated group, versus negative control 1.0
Method: as §4, §5, §6, §7

HMGB1 [3] = assay: as above; type: cell-based, rat; details: 20 ug β-amyloid + PEP 1 treated group, versus negative control 1.0
Method: as §4, §5, §6, §7

i-NOS = assay: as above; type: cell-based, rat; details: 20 ug β-amyloid + PEP 1 treated group, versus negative control 1.0
Method: as §4, §5, §6, §7

GADD 153 = assay: as above; type: cell-based, rat; details: 20 ug β-amyloid + PEP 1 treated group, versus negative control 1.0
Method: as §4, §5, §6, §7

Pyk2 = assay: as above; type: cell-based, rat; details: 20 ug β-amyloid + PEP 1 treated group, versus negative control 1.0
Method: as §4, §5, §6, §7

nitric oxide (NO) = assay: NO level analysis (Griess reagent) in LPS-stimulated Raw 264.7 cells; type: cell-based
Method: as §1
as §2, with “On the following day, the medium was replaced with fresh medium and 5 μg/mL of peptide (obtained as described in Experiment example 1) was added to the cells.” left out
The level of nitric oxide (NO) was measured in Raw 264.7 cell (1×10^6 cell/ml) using Griess reagent system (PROMEGA CORPORATION®, USA). Culture medium of 50 μl was added to a 96-well plate and Griess reagent I (NED) solution and Griess reagent II (Sulfanilamide solution) are added in the same amount. After 10 min incubation of cells with the reagents, the optical density at 540 nm was measured within 30 min using a microplate reader (MOLECULAR DEVICES®, USA). The concentration of NO was calculated by using a standard curve (0˜100 μM) of sodium nitrite.

[4] = LPS 1 μg/mL, PEP 1 0.5 μg/mL, 24 hr

**Q.** Which results are given for EARPALLTSRLRFIPK [PEP-1]?
**A.** TNF-α Cytokine Expression Level (band intensity) % of control (TNF-α): 25%; COX-2 Cytokine Expression Level (band intensity) % of control (COX-2): 22%; HMGB1 Cytokine Expression Level (band intensity) % of control (HMGB1 [1]): 30%; decrease of pro-inflammatory cytokine levels (HMGB1, TNF-α and COX): more than 70%; neuronal stem cell death (TUNEL) (neural stem cells): decreased; HMGB1 in the cytoplasm of the nerve cells (HMGB1 [2]): increase of HMGB1; HSP 70 expression (fold) (HSP 70): 1.2 fold; MAP Kinase expression (fold) (MAP Kinase): 1.0 fold; e-NOS expression (fold) (e-NOS): −1.1 fold; HSP 90 expression (fold) (HSP 90): 1.0 fold; HMGB1 expression (fold) (HMGB1 [3]): 2.8 fold; i-NOS expression (fold) (i-NOS): −1.1 fold; GADD 153 expression (fold) (GADD 153): 1.2 fold; Pyk2 expression (fold) (Pyk2): 1.2 fold; Decreased NO Expression Level (%) (nitric oxide (NO); [4]): 65%; NO Expression Level of control (%) (nitric oxide (NO); [4]): 35%; NO level reduced to % of the control (nitric oxide (NO); co-treatment with LPS): 65%
